Reference: US20080234254A1, “Inhibitors of Histone Deacetylase” (UNIVERSITY OF LEEDS, priority 2004, published 2008)
Where two headings read alike, the source gives them in different places.

Key:
Assay type in all cases: cell-based
NCI/ADR-RES = experiment: Screening against cancer cell lines: NCI/ADR-RES (Breast)
Text: (§1) Screening of Benzamide Derivatives Against Cancer Cell Lines Tables 1 and 2 tabulate by way of example the results obtained for compounds (4) and (6).
(§2) 7 breast cancer cell lines were screened against both compound (4) and MS275.

cancer cell lines = experiment: Screening of benzamide derivatives against cancer cell lines (summary); conditions: summary of Tables 1 and 2
Text: as §1

MDA-MB-435 = experiment: Screening against cancer cell lines: MDA-MB-435 (Breast)
Text: as §1, §2

LOX IMVI = experiment: Screening against cancer cell lines: LOX IMVI (Melanoma)
Text: as §1
(§3) 7 melanoma cancer cell lines were screened against both compound (4) and MS275.

MDA-MB-231/ATCC = experiment: Screening against cancer cell lines: MDA-MB-231/ATCC (Breast)
Text: as §1, §2

SK-OV-3 = experiment: Comparison test versus MS275: SK-OV-3 (ovarian cancer); conditions: Homo sapiens, read-out: potency (quantity not named; values match GI50 of Table 1)
Text: (§4) 6 ovarian cancer cell lines were screened against both compound (4) and MS275.

OVCAR-8 = experiment: Screening against cancer cell lines: OVCAR-8 (Ovarian)
Text: as §1

NCI-H23 = experiment: Screening against cancer cell lines: NCI-H23 (Non-Small Cell Lung)
Text: as §1
(§5) 8 non-small cell lung cancer cell lines were screened against both compound (4) and MS275.

[1] = system: non-small cell lung cancer cell lines; experiment: Comparison test versus MS275: 8 non-small cell lung cancer cell lines; conditions: in 2 cell lines of 8 non-small cell lung cancer cell lines screened
Text: as §5

UACC-257 = experiment: Screening against cancer cell lines: UACC-257 (Melanoma)
Text: as §1, §3

[2] = system: ovarian cancer cell lines; experiment: Comparison test versus MS275: 6 ovarian cancer cell lines; conditions: in 3 cell lines of 6 ovarian cancer cell lines screened
Text: as §4

NCI-H522 = experiment: Screening against cancer cell lines: NCI-H522 (Non-Small Cell Lung)
Text: as §1, §5

HCT-15 = experiment: Screening against cancer cell lines: HCT-15 (Colon)
Text: as §1
(§6) 6 colon cancer cell lines were screened against both compound (4) and MS275.

HCC-2998 = experiment: Screening against cancer cell lines: HCC-2998 (Colon)
Text: as §1, §6

IGROV1 = experiment: Screening against cancer cell lines: IGROV1 (Ovarian)
Text: as §1, §4

KM-12 = experiment: Comparison test versus MS275: KM-12 (colon cancer); conditions: Homo sapiens, KM12, read-out: potency (quantity not named; values match GI50 of Table 1)
Text: as §6

breast cancer cell lines = experiment: Comparison test versus MS275: 7 breast cancer cell lines; conditions: in 3 cell lines of 7 breast cancer cell lines screened
Text: as §2

SN12C = experiment: Screening against cancer cell lines: SN12C (Renal)
Text: as §1
(§7) 7 renal cancer cell lines were screened against both compound (4) and MS275.

UACC-62 = experiment: Screening against cancer cell lines: UACC-62 (Melanoma)
Text: as §1

ACHN = experiment: Screening against cancer cell lines: ACHN (Renal)
Text: as §1, §7

renal cancer cell lines = experiment: Comparison test versus MS275: 7 renal cancer cell lines; conditions: in 4 cell lines of 7 renal cancer cell lines screened
Text: as §7

RXF 393 = experiment: Screening against cancer cell lines: RXF 393 (Renal)
Text: as §1, §7

[3] = system: melanoma cancer cell lines; experiment: Comparison test versus MS275: 7 melanoma cancer cell lines; conditions: in 3 cell lines of 7 melanoma cancer cell lines screened
Text: as §3

colon cancer cell lines = experiment: Comparison test versus MS275: 6 colon cancer cell lines; conditions: in 3 cell lines of 6 colon cancer cell lines screened
Text: as §6

OVCAR-4 = experiment: Comparison test versus MS275: OVCAR-4 (ovarian cancer); conditions: Homo sapiens, read-out: potency (quantity not named; values match GI50 of Table 1)
Text: as §4

RPMI-8226 = experiment: Screening against cancer cell lines: RPMI-8226 (Leukaemia)
Text: as §1

SR = experiment: Screening against cancer cell lines: SR (Leukaemia); conditions: Leukaemia
Text: as §1

[4] = Homo sapiens, Breast, Table 1, read-out: GI50
[5] = Homo sapiens, Breast, Table 1, read-out: LC50 (the source's name)
[6] = Homo sapiens, breast cancer, comparison versus MS275, read-out: potency (quantity not named; values match GI50 of Table 1)
[7] = Homo sapiens, Table 1, read-out: LC50 (the source's name)
[8] = Homo sapiens, Renal, Table 1, read-out: GI50
[9] = Homo sapiens, Renal, Table 1, read-out: LC50 (the source's name)
[10] = Homo sapiens, renal cancer, comparison versus MS275, read-out: potency (quantity not named; values match GI50 of Table 1)

C=C(CN1CCc2ccccc2C1)c1ccc(C(=O)Nc2ccccc2N)cc1 [Compound (4), N-(2-Amino-phenyl)-4-[1-(3,4-dihydroisoquinolin-2(1H)-ylmethyl)vinyl]benzamide] gave a TGI (NCI/ADR-RES; Breast, Table 1) of 2000 nM, a GI50 (NCI/ADR-RES; [4]) of 613 nM and a CC50 (NCI/ADR-RES; [5]) greater than 50000 nM. For the same molecule, the GI50 (NCI/ADR-RES; [6]) was 610 nM, the “activity against cancer cell lines (in words)” value (cancer cell lines) was “potently inhibited” and the GI50 (MDA-MB-435; Homo sapiens, MDA-MB-435, Breast, Table 1, read-out: GI50) was 98 nM. It also gave a CC50 (MDA-MB-435; Homo sapiens, MDA-MB-435, Breast, Table 1, read-out: LC50 (the source's name)) of roughly 4000 nM, a GI50 (MDA-MB-435; Homo sapiens, MDA-MB-435, breast cancer, comparison versus MS275, read-out: potency (quantity not named; values match GI50 of Table 1)) of 90 nM and a TGI (MDA-MB-435; MDA-MB-435, Breast, Table 1) of 600 nM. It also gave a GI50 (LOX IMVI; Homo sapiens, Melanoma, Table 1, read-out: GI50) of 99 nM, a CC50 (LOX IMVI; Homo sapiens, Melanoma, Table 1, read-out: LC50 (the source's name)) of 6400 nM and a GI50 (LOX IMVI; Homo sapiens, melanoma, comparison versus MS275, read-out: potency (quantity not named; values match GI50 of Table 1)) of 90 nM. It also gave a TGI (LOX IMVI; Melanoma, Table 1) of 600 nM, a TGI (MDA-MB-231/ATCC; Breast, Table 1) of 2700 nM and a GI50 (MDA-MB-231/ATCC; [4]) of 748 nM. The CC50 (MDA-MB-231/ATCC; [5]) was 19200 nM, the GI50 (MDA-MB-231/ATCC; [6]) was 750 nM and the GI50 (SK-OV-3) was 1080 nM. For the same molecule, the GI50 (OVCAR-8; Homo sapiens, Table 1) was 768 nM, the CC50 (OVCAR-8; [7]) was greater than 50000 nM and the TGI (OVCAR-8; Table 1) was 12500 nM. The GI50 (NCI-H23; Homo sapiens, NCI-H23, Non-Small Cell Lung, Table 1, read-out: GI50) was 178 nM, the CC50 (NCI-H23; Homo sapiens, NCI-H23, Non-Small Cell Lung, Table 1, read-out: LC50 (the source's name)) was 11400 nM and the GI50 (NCI-H23; Homo sapiens, NCI-H23, non-small cell lung cancer, comparison versus MS275, read-out: potency (quantity not named; values match GI50 of Table 1)) was 180 nM. The TGI (NCI-H23; NCI-H23, Non-Small Cell Lung, Table 1) was 1500 nM, the “potency over MS275” value [1] was greater than 2 fold and the GI50 (UACC-257; Homo sapiens, UACC-257, Melanoma, Table 1, read-out: GI50) was 499 nM. It also gave a CC50 (UACC-257; Homo sapiens, UACC-257, Melanoma, Table 1, read-out: LC50 (the source's name)) greater than 50000 nM, a GI50 (UACC-257; Homo sapiens, UACC-257, melanoma, comparison versus MS275, read-out: potency (quantity not named; values match GI50 of Table 1)) of 500 nM and a TGI (UACC-257; UACC-257, Melanoma, Table 1) of 15500 nM. The “potency over MS275” value [2] was greater than 2 fold, the GI50 (NCI-H522; Homo sapiens, NCI-H522, Non-Small Cell Lung, Table 1, read-out: GI50) was 220 nM and the CC50 (NCI-H522; Homo sapiens, NCI-H522, Non-Small Cell Lung, Table 1, read-out: LC50 (the source's name)) was 20800 nM. It also gave a GI50 (NCI-H522; Homo sapiens, NCI-H522, non-small cell lung cancer, comparison versus MS275, read-out: potency (quantity not named; values match GI50 of Table 1)) of 220 nM, a TGI (NCI-H522; NCI-H522, Non-Small Cell Lung, Table 1) of 1400 nM and a TGI (HCT-15; HCT-15, Colon, Table 1) of 7800 nM. It also gave a GI50 (HCT-15; Homo sapiens, HCT-15, Colon, Table 1, read-out: GI50) of 836 nM, a CC50 (HCT-15; Homo sapiens, HCT-15, Colon, Table 1, read-out: LC50 (the source's name)) greater than 50000 nM and a GI50 (HCT-15; Homo sapiens, HCT-15, colon cancer, comparison versus MS275, read-out: potency (quantity not named; values match GI50 of Table 1)) of 840 nM. It also gave a TGI (HCC-2998; HCC-2998, Colon, Table 1) of 400 nM, a GI50 (HCC-2998; Homo sapiens, HCC-2998, Colon, Table 1, read-out: GI50) of 90 nM and a CC50 (HCC-2998; Homo sapiens, HCC-2998, Colon, Table 1, read-out: LC50 (the source's name)) of 2000 nM. It also gave a GI50 (HCC-2998; Homo sapiens, HCC-2998, colon cancer, comparison versus MS275, read-out: potency (quantity not named; values match GI50 of Table 1)) of 90 nM, a GI50 (IGROV1; Homo sapiens, IGROV-1, IGROV1, Ovarian, Table 1, read-out: GI50) of 245 nM and a CC50 (IGROV1; Homo sapiens, IGROV-1, IGROV1, Ovarian, Table 1, read-out: LC50 (the source's name)) greater than 50000 nM. For the same molecule, the GI50 (IGROV1; Homo sapiens, IGROV-1, IGROV1, ovarian cancer, comparison versus MS275, read-out: potency (quantity not named; values match GI50 of Table 1)) was 250 nM, the TGI (IGROV1; IGROV1, Ovarian, Table 1) was 10500 nM and the GI50 (KM-12) was 1150 nM. The “potency over MS275” value (breast cancer cell lines) was greater than 2 fold, the GI50 (SN12C; [8]) was 629 nM and the CC50 (SN12C; [9]) was 27000 nM. The GI50 (SN12C; [10]) was 630 nM, the TGI (SN12C; Renal, Table 1) was 2700 nM and the GI50 (UACC-62; Homo sapiens, Table 1) was 666 nM. It also gave a CC50 (UACC-62; [7]) of 20700 nM, a TGI (UACC-62; Table 1) of 2900 nM and a GI50 (ACHN; [8]) of 844 nM. For the same molecule, the CC50 (ACHN; [9]) was 14400 nM, the GI50 (ACHN; [10]) was 840 nM and the TGI (ACHN; Renal, Table 1) was 2800 nM. The “potency over MS275” value (renal cancer cell lines) was greater than 2 fold, the GI50 (RXF 393; Homo sapiens, RXF 393, Renal, Table 1, read-out: GI50) was 102 nM and the CC50 (RXF 393; Homo sapiens, RXF 393, Renal, Table 1, read-out: LC50 (the source's name)) was 46000 nM. For the same molecule, the GI50 (RXF 393; Homo sapiens, RXF 393, renal cancer, comparison versus MS275, read-out: potency (quantity not named; values match GI50 of Table 1)) was 100 nM, the TGI (RXF 393; RXF 393, Renal, Table 1) was 600 nM and the “potency over MS275” value [3] was greater than 2 fold. For the same molecule, the “potency over MS275” value (colon cancer cell lines) was greater than 2 fold, the GI50 (OVCAR-4) was 1910 nM and the GI50 (RPMI-8226; Homo sapiens, Table 1) was 510 nM. The CC50 (RPMI-8226; [7]) was greater than 50000 nM, the TGI (RPMI-8226; Table 1) was “— (‘—’ indicates a concentration exceeding 50 μM.)” and the GI50 (SR; Homo sapiens, Table 1, read-out: GI50) was 484 nM. The CC50 (SR; [7]) was greater than 50000 nM and the TGI (SR; Table 1) was “— (‘—’ indicates a concentration exceeding 50 μM.)”.
